According to patent publication US10683329B2, “Dual-site BACE1 inhibitors” (priority 2014, dated 2020):
Read-outs that look alike come from different tables or passages of the source. Where a SMILES comes first, the peptide text is derived from it. [ ]: non-standard residue; d: D form. The star is where a group is joined. Succinyl(4-O-cholesteryl) = CC(C)CCC[C@@H](C)[C@H]1CC[C@H]2[C@@H]3CC=C4C[C@@H](OC(=O)CCC(=O)*)CC[C@]4(C)[C@H]3CC[C@]12C; Sta = CC(C)C[C@H](N)[C@@H](O)CC(=O)O; PEG4 = NCCOCCOCCOCCOCCC(=O)O

Biological target: T1, BACE1 (Homo sapiens, UniProt P56817)
T1 construct: Human HEK293 cells which are stably transfected with a vector expressing a cDNA of the human APP wt gene (APP695); endogenous in cells; host or cells: HEK293 (human), stably transfected with human APP695 wt
Assay: Cellular Aβ-lowering assay (Aβ40 ELISA of culture supernatant)
Format: cell-based
Method: The compounds were investigated in accordance with the test given hereinafter.
Cellular Aβ-Lowering Assay:
Human HEK293 cells which are stably transfected with a vector expressing a cDNA of the human APP wt gene (APP695) were used to assess the potency of the compounds in a cellular assay. The cells were seeded in 96-well microtiter plates in cell culture medium (Iscove, plus 10% (v/v) fetal bovine serum, glutamine, penicillin/streptomycin) to about 80% confluence and the compounds were added at a 10× concentration in 1/10 volume of medium without FCS containing 8% DMSO (final concentration of DMSO was kept at 0.8% v/v). After 18-20 hrs incubation at 37° C. and 5% CO2 in a humidified incubator the culture supernatant was harvested for the determination of Aβ40 concentrations. 96 well ELISA plates (e.g., Nunc MaxiSorb) were coated with monoclonal antibody which specifically recognize the C-terminal end of Aβ40 (Brockhaus et al., NeuroReport 9; 1481-1486; 1998). After blocking of non-specific binding sites with e.g. 1% BSA and washing, the culture supernatants were added in suitable dilutions together with a horseradish peroxidase-coupled Aβ detection antibody (e.g., antibody 4G8, Senetek, Maryland Heights, Mo.) and incubated for 5 to 7 hrs. Subsequently the wells of the microtiter plate were washed extensively with Tris-buffered saline containing 0.05% Tween 20 and the assay was developed with tetramethylbenzidine/H2O2 in citric acid buffer. After stopping the reaction with one volume 1 N H2SO4 the reaction was measured in an ELISA reader at 450 nm wavelength. The concentrations of Aβ in the culture supernatants were calculated from a standard curve obtained with known amounts of pure Aβ peptide.

[1] = Aβ40 in supernatant of human HEK293 cells stably transfected with human APP wt (APP695), 18-20 hrs incubation, read-out: IC 50

T1 sequence (P56817 46-501): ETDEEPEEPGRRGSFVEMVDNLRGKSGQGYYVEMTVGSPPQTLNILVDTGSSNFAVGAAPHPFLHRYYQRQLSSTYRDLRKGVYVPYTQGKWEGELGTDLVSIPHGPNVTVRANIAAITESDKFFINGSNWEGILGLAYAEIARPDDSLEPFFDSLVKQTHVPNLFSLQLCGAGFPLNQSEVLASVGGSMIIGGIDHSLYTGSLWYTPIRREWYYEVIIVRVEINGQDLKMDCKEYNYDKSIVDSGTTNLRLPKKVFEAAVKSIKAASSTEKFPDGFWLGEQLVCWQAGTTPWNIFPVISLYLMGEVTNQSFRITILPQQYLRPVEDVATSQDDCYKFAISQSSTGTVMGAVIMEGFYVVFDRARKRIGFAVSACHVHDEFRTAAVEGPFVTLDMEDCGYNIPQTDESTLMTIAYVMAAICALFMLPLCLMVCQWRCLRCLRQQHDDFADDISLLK

Structure (SMILES) | IC50 [1] | IC50
CC(C)CCC[C@@H](C)[C@H]1CC[C@H]2[C@@H]3CC=C4C[C@@H](OC(=O)CCC(=O)NCCCC[C@H](NC(=O)[C@H]5CCCN5C(=O)[C@H](CCC(=O)O)NC(=O)[C@H](C)NC(=O)[C@@H](NC(=O)C[C@H](O)[C@H](CC(C)C)NC(=O)[C@H](CC(N)=O)NC(=O)[C@@H](NC(=O)[C@H](CCC(=O)O)NC(=O)CCOCCOCCOCCOCCNC(=O)[C@H](CC(C)C)NC(=O)[C@@H]5CCCN5C(=O)[C@H](CCCCN)NC(=O)[C@H](Cc5ccccc5)NC(=O)[C@H](Cc5ccc(O)cc5)NC(=O)[C@@H]5CCCN5C(=O)[C@@H](N)Cc5ccc(O)cc5)C(C)C)C(C)C)C(N)=O)CC[C@]4(C)[C@H]3CC[C@]12C [Example 34, Tyr-Pro-Tyr-Phe-Lys-Pro-Leu-PEG(4)-Glu-Val-Asn-Sta-Val-Ala-Glu-DPro-Lys(Chol)-NH2] (H-YPYFKPL[PEG4]EVN[Sta]VAE[dP]K(Succinyl(4-O-cholesteryl))-NH2) | 0.0235 nM | –
CC[C@H](C)[C@H](NC(=O)[C@H](Cc1ccccc1)NC(=O)[C@H](Cc1ccc(O)cc1)NC(=O)[C@@H]1CCCN1C(=O)[C@@H](N)Cc1ccc(O)cc1)C(=O)N1CCC[C@H]1C(=O)N[C@@H](CC(C)C)C(=O)NCC(=O)NCC(=O)NCC(=O)N[C@@H](CCC(=O)O)C(=O)N[C@H](C(=O)N[C@@H](CC(N)=O)C(=O)N[C@@H](CC(C)C)[C@@H](O)CC(=O)N[C@H](C(=O)N[C@@H](C)C(=O)N[C@@H](CCC(=O)O)C(=O)N1CCC[C@@H]1C(=O)N[C@@H](CCCCNC(=O)CCC(=O)O[C@H]1CC[C@@]2(C)C(=CC[C@H]3[C@@H]4CC[C@H]([C@H](C)CCCC(C)C)[C@@]4(C)CC[C@@H]32)C1)C(N)=O)C(C)C)C(C)C [Example 2, Tyr-Pro-Tyr-Phe-Ile-Pro-Leu-Gly-Gly-Gly-Glu-Val-Asn-Sta-Val-Ala-Glu-DPro-Lys(Chol)-NH2] | – | 0.027 nM
CC[C@H](C)[C@H](NC(=O)[C@H](Cc1ccccc1)NC(=O)[C@H](Cc1ccc(O)cc1)NC(=O)[C@@H]1CCCN1C(=O)[C@@H](N)Cc1ccc(O)cc1)C(=O)N1CCC[C@H]1C(=O)N[C@@H](CC(C)C)C(=O)NCCOCCOCCOCCOCCC(=O)N[C@@H](CCC(=O)O)C(=O)N[C@H](C(=O)N[C@@H](CC(N)=O)C(=O)N[C@@H](CC(C)C)[C@@H](O)CC(=O)N[C@H](C(=O)N[C@@H](C)C(=O)N[C@@H](CCC(=O)O)C(=O)N1CCC[C@@H]1C(=O)N[C@@H](CCCCNC(=O)CCC(=O)O[C@H]1CC[C@@]2(C)C(=CC[C@H]3[C@@H]4CC[C@H]([C@H](C)CCCC(C)C)[C@@]4(C)CC[C@@H]32)C1)C(N)=O)C(C)C)C(C)C [Example 14, Tyr-Pro-Tyr-Phe-Ile-Pro-Leu-PEG(4)-Glu-Val-Asn-Sta-Val-Ala-Glu-DPro-Lys(Chol)-NH2] (H-YPYFIPL[PEG4]EVN[Sta]VAE[dP]K(Succinyl(4-O-cholesteryl))-NH2) | 0.027 nM | –
CC[C@H](C)[C@H](NC(=O)[C@H](Cc1ccccc1)NC(=O)[C@H](Cc1ccc(O)cc1)NC(=O)[C@@H]1CCCN1C(=O)[C@@H](N)CCCCN)C(=O)N1CCC[C@H]1C(=O)N[C@@H](CC(C)C)C(=O)NCC(=O)N[C@H](CCCCN)C(=O)NCC(=O)N[C@@H](CCC(=O)O)C(=O)N[C@H](C(=O)N[C@@H](CC(N)=O)C(=O)N[C@@H](CC(C)C)[C@@H](O)CC(=O)N[C@H](C(=O)N[C@@H](C)C(=O)N[C@@H](CCC(=O)O)C(=O)N1CCC[C@@H]1C(=O)N[C@@H](CCCCNC(=O)CCC(=O)O[C@H]1CC[C@@]2(C)C(=CC[C@H]3[C@@H]4CC[C@H]([C@H](C)CCCC(C)C)[C@@]4(C)CC[C@@H]32)C1)C(N)=O)C(C)C)C(C)C [Example 48, Lys-Pro-Tyr-Phe-Ile-Pro-Leu-Gly-DLys-Gly-Glu-Val-Asn-Sta-Val-Ala-Glu-DPro-Lys(Chol′estert)-NH2] (H-KPYFIPLG[dK]GEVN[Sta]VAE[dP]K(Succinyl(4-O-cholesteryl))-NH2) | 0.02 nM | –
CC[C@H](C)[C@H](NC(=O)[C@H](Cc1ccccc1)NC(=O)[C@H](Cc1ccc(O)cc1)NC(=O)[C@@H]1CCCN1C(=O)[C@@H](N)Cc1ccc(O)cc1)C(=O)N1CCC[C@H]1C(=O)N[C@@H](CC(C)C)C(=O)NCC(=O)N[C@H](C)C(=O)NCC(=O)N[C@@H](CCC(=O)O)C(=O)N[C@H](C(=O)N[C@@H](CC(N)=O)C(=O)N[C@@H](CC(C)C)[C@@H](O)CC(=O)N[C@H](C(=O)N[C@@H](C)C(=O)N[C@@H](CCC(=O)O)C(=O)N1CCC[C@@H]1C(=O)N[C@@H](CCCCNC(=O)CCC(=O)O[C@H]1CC[C@@]2(C)C(=CC[C@H]3[C@@H]4CC[C@H]([C@H](C)CCCC(C)C)[C@@]4(C)CC[C@@H]32)C1)C(N)=O)C(C)C)C(C)C [Example 53, Tyr-Pro-Tyr-Phe-Ile-Pro-Leu-Gly-DAla-Gly-Glu-Val-Asn-Sta-Val-Ala-Glu-DPro-Lys(Chol′ester′)-NH2] | 0.02 nM | –
CC[C@H](C)[C@H](NC(=O)[C@H](Cc1ccccc1)NC(=O)[C@H](Cc1ccc(O)cc1)NC(=O)[C@@H]1CCCN1C(=O)[C@@H](N)Cc1ccc(O)cc1)C(=O)N1CCC[C@H]1C(=O)N[C@@H](CC(C)C)C(=O)N[C@@H](CCCCN)C(=O)NCC(=O)NCC(=O)N[C@@H](CCC(=O)O)C(=O)N[C@H](C(=O)N[C@@H](CC(N)=O)C(=O)N[C@@H](CC(C)C)[C@@H](O)CC(=O)N[C@H](C(=O)N[C@@H](C)C(=O)N[C@@H](CCC(=O)O)C(=O)N1CCC[C@@H]1C(=O)N[C@@H](CCCCNC(=O)CCC(=O)O[C@H]1CC[C@@]2(C)C(=CC[C@H]3[C@@H]4CC[C@H]([C@H](C)CCCC(C)C)[C@@]4(C)CC[C@@H]32)C1)C(N)=O)C(C)C)C(C)C [Example 40, Tyr-Pro-Tyr-Phe-Ile-Pro-Leu-Lys-Gly-Gly-Glu-Val-Asn-Sta-Val-Ala-Glu-DPro-Lys(Chol)-NH2] | 0.0235 nM | –
